# Tested on: Escherichia coli isolate
# Assay: Same-sample AST, bulk: filtration, RT-ddPCR of 23S rRNA, percent extracellular (Example 1)
# Type: cell-based
# Conditions: 1.0 μg/mL ETP, 37° C. 60 minutes; lower bound of 95% Poisson CI of percent extracellular vs threshold (control mean + 2 SD); three replicates
# Procedure: The inoculum was small enough that no detectable difference in the sample's optical density at 600 mm (OD600) was detectable by a spectrophotometer with a sensitivity of 0.01 absorbance units. After an incubation at 37° C., the media became turbid with an OD600 of 0.26 absorbance units after 2 hours of incubation thus providing a bacteria batch culture.
# To begin the AST protocol, 10 μL of the above bacteria batch culture was added to and mixed with 15 μL of Mueller-Hinton Broth (MHB) growth media containing 1.67 μg/mL of dissolved ertapenem (ETP) antibiotic to create a test condition antibiotic exposure with a final ETP concentration of 1.0 μg/mL.
# In parallel, 10 μL of the batch culture was added to and mixed with 15 μL of Mueller-Hinton Broth (MHB) growth media containing no ETP to create a control condition antibiotic exposure corresponding to the 1 μg/mL test condition. The two antibiotic exposures were incubated at 37° C. for 60 minutes.
# The entire volume of each antibiotic exposure was transferred to an individual cellulose acetate filter with a 0.2 μm pore size. Fluid that passes through the filter, called the “filtrate”, was collected in a clean microcentrifuge tube. The antibiotic exposures were centrifuged at 2200 relative centrifugal force to speed the passage of the antibiotic exposure through the filter and into the collecting vessel. […]
structure (smiles),measurement,value
"C[C@@H](O)[C@H]1C(=O)N2C(C(=O)O)=C(S[C@@H]3CN[C@H](C(=O)Nc4cccc(C(=O)O)c4)C3)[C@H](C)[C@H]12 [ETP, ertapenem]",susceptibility call,susceptible
